Reference: article PMC12207590, “Substrate Specificity of the Organic Cation Transporters MATE1 and MATE2K and Functional Overlap with OCT1 and OCT2” (Journal of Medicinal Chemistry, 2025)
Where two headings read alike, the source gives them in different places.

Key:
[1] = target: MATE2K (Homo sapiens, UniProt Q86VL8); assay: Uptake ratio in MATE2K-overexpressing HEK293 cells vs empty vector (2.5 μM, 1 min, HPLC-MS/MS); type: cell-based
[2] = target: T1, MATE1 (Homo sapiens, UniProt Q96FL8); assay: Uptake ratio in MATE1-overexpressing HEK293 cells vs empty vector (2.5 μM, 1 min, HPLC-MS/MS); type: cell-based
T1 sequence (Q96FL8 1-570): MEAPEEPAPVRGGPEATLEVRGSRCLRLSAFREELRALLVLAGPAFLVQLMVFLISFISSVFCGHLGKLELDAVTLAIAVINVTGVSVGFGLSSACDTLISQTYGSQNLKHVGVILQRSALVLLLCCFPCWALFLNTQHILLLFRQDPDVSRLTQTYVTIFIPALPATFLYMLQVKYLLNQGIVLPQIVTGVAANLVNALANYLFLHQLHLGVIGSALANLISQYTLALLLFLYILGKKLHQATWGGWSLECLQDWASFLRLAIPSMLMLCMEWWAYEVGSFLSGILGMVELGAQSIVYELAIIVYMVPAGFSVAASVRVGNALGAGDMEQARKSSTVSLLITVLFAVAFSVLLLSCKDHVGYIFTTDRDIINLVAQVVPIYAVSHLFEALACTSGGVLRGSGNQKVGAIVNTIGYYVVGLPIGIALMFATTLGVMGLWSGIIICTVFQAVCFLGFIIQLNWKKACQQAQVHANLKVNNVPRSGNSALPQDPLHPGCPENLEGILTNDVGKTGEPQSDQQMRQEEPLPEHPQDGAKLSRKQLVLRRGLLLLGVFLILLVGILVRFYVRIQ

[3] = fold uptake over empty vector, 2.5 μM, 1 min
[4] = uptake ratio MATE2K-overexpressing vs empty-vector HEK293 cells, 2.5 μM, 1 min, mean
[5] = uptake ratio MATE1-overexpressing vs empty-vector HEK293 cells, 2.5 μM, 1 min, mean
[6] = mean ratio of uptake in MATE2K-overexpressing HEK293 cells vs empty vector, 2.5 μM, 1 min
[7] = mean ratio of uptake in MATE1-overexpressing HEK293 cells vs empty vector, 2.5 μM, 1 min

Chain of MATE2K (Q86VL8 1-566 isoform Q86VL8-3): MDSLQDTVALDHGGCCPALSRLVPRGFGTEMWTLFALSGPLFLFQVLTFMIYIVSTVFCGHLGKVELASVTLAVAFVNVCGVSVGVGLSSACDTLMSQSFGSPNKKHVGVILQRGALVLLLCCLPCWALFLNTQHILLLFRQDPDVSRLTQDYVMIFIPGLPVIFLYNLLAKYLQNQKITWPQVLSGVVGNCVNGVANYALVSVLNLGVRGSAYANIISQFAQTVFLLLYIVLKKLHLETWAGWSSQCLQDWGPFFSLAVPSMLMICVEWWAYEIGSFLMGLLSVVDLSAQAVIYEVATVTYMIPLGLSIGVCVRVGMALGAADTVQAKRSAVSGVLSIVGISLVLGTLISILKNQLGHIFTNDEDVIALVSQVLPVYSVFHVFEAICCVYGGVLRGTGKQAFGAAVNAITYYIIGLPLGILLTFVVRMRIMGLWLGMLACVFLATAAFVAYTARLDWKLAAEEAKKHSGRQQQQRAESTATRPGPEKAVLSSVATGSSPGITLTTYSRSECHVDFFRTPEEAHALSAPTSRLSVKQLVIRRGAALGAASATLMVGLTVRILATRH

C=C[C@H]1CN2CC[C@H]1C[C@H]2[C@H](O)c1ccnc2ccccc12 [Cinchonidine]
MATE2 (uptake ratio) [1]: 1.14 | MATE2K ratio [1]: 1.14 | MATE1 (uptake ratio) [2]: 1.16 | MATE1 ratio [2]: 1.16

N[C@@H](Cc1ccc(O)c(O)c1)C(=O)O [Levodopa]
MATE2K ratio [1, 3]: 1.01 | MATE1 ratio [2, 3]: 0.71

CN1C(=O)CC[C@H]1c1cccnc1 [Cotinine]
MATE2K ratio [1, 3]: 1.20 | MATE1 ratio [2, 3]: 1.11

CCCCCCCN [Heptylamine]
MATE2K ratio [1]: 1.60 | MATE1 ratio [2]: 1.18

C[n+]1ccc(-c2ccccc2)cc1 [1-Methyl-4-phenylpyridinium]
MATE2 (uptake ratio) [1]: 9.05 | MATE2K ratio [1]: 9.05 | MATE2K ratio in this study [1]: 9.05 | MATE1 (uptake ratio) [2]: 23.35 | MATE1 ratio [2]: 23.35 | MATE1 ratio in this study [2]: 23.35

COc1cc2c(cc1OC)-c1cc3ccc4c(c3c[n+]1CC2)OCO4 [Epiberberine]
MATE2K ratio [1]: 5.89 | MATE1 ratio [2]: 12.54

CC1(C)OC[C@@H](COC(=O)CCc2ccc(OC[C@@H](O)CNCCNC(=O)N3CCOCC3)cc2)O1 [Landiolol]
MATE2K ratio [1, 3]: 2.87 | MATE1 ratio [2, 3]: 3.68

CC(CN(C)C)CN1c2ccccc2CCc2ccccc21 (stereo not drawn) [Trimipramine]
MATE2 [1, 4]: 1.2 | MATE1 [2, 5]: 1.19

CNCC(O)c1ccc(O)cc1.CNCC(O)c1ccc(O)cc1.O=C(O)C(O)C(O)C(=O)O (stereo not drawn) [Synephrine]
MATE2 [1]: 1.04 | MATE1 [2]: 6.5

Cc1oc2nc3c(c(NC(=O)CN4CCCC4=O)c2c1C)CCCC3 [Coluracetam]
MATE2K ratio [1, 3]: 0.97 | MATE1 ratio [2, 3]: 0.97

CNCc1ccc(CSCCN/C(=C/[N+](=O)[O-])NC)o1 [N-Desmethylranitidine]
MATE2K ratio [1, 3]: 14.02 | MATE1 ratio [2, 3]: 23.54

COc1cc2c(cc1OC)[C@@]13CCN4CC5=CCO[C@H]6CC(=O)N2[C@H]1[C@H]6[C@H]5C[C@H]43 [Brucine]
MATE2 (uptake ratio) [1]: 1.3 | MATE2K ratio [1]: 1.30 | MATE1 (uptake ratio) [2]: 1.13 | MATE1 ratio [2]: 1.13

CC(=O)OC1CN2CCC1CC2 (stereo not drawn) [Aceclidine]
MATE2 (uptake ratio) [1]: 1.08 | MATE2K ratio [1]: 1.08 | MATE1 (uptake ratio) [2]: 1.26 | MATE1 ratio [2]: 1.26

CCC1(C2=NCCN2)Cc2ccccc2O1 (stereo not drawn) [Efaroxan]
MATE2K ratio [1, 3]: 1.72 | MATE1 ratio [2, 3]: 1.38

NCCCNCCCCNCCCN [Spermine]
MATE2K ratio [1, 3]: 1.25 | MATE2 [1, 4]: 1.25 | MATE1 ratio [2, 3]: 1.13 | MATE1 [2, 5]: 1.13

CNCC(=O)O [Sarcosine]
MATE2K ratio [1, 3]: 1.01 | MATE2 [1, 4]: 1.01 | MATE1 ratio [2, 3]: 0.76 | MATE1 [2, 5]: 0.76

COc1ccccc1OCCNCC(O)COc1cccc2[nH]c3ccccc3c12 [Carvedilol (S), Carvedilol]
MATE2K ratio [1, 3]: 1.18 | MATE2 (uptake ratio) [1, 6]: 1.18 | MATE1 ratio [2, 3]: 1.19 | MATE1 (uptake ratio) [2, 7]: 1.19

COc1ccc(CC2c3cc(OC)c(OC)cc3CC[N+]2(C)CCC(=O)OCCCCCOC(=O)CC[N+]2(C)CCc3cc(OC)c(OC)cc3C2Cc2ccc(OC)c(OC)c2)cc1OC (stereo not drawn) [Atracurium]
MATE2K ratio [1, 3]: 1.10 | MATE2 (uptake ratio) [1, 6]: 1.1 | MATE1 ratio [2, 3]: 1.13 | MATE1 (uptake ratio) [2, 7]: 1.13

CC(C)(C)NCC(O)c1ccc(O)c(CO)c1 [Salbutamol (R), Salbutamol]
MATE2K ratio in this study ([1]; Table S1, 2.5 μM, 1 min): 3.74 | MATE2K ratio [1, 3]: 3.74 | MATE2 [1, 4]: 3.74 | MATE1 ratio in this study ([2]; Table S1, 2.5 μM, 1 min): 6.98 | MATE1 ratio [2, 3]: 6.98 | MATE1 [2, 5]: 6.98

CCOc1ccccc1OCC1CNCCO1 (stereo not drawn) [Viloxazine]
MATE2 [1]: 1.38 | MATE1 [2]: 1.12

CN(C)CCC=C1c2ccccc2COc2ccccc21 [Doxepin (Z), Doxepin]
MATE2K ratio [1, 3]: 1.09 | MATE1 ratio [2, 3]: 1.28

CNCC(O)c1ccccc1 (stereo not drawn) [Halostachine]
MATE2K ratio [1, 3]: 1.52 | MATE1 ratio [2, 3]: 1.41

N=C(N)N1CCc2ccccc2C1 [Debrisoquine]
MATE2K ratio in this study ([1]; Table S1, 2.5 μM, 1 min): 5.05 | MATE2K ratio [1, 3]: 5.05 | MATE1 ratio in this study ([2]; Table S1, 2.5 μM, 1 min): 8.16 | MATE1 ratio [2, 3]: 8.16

CC(C)(C)NCC(O)COc1ccccc1C#N (stereo not drawn) [Bunitrolol]
MATE2K ratio [1, 3]: 1.31 | MATE2 (uptake ratio) [1, 6]: 1.31 | MATE1 ratio [2, 3]: 1.17 | MATE1 (uptake ratio) [2, 7]: 1.17

C[N+]1(C)CCCC(OC(=O)C(O)(c2ccccc2)c2ccccc2)C1.[Br-] (stereo not drawn) [Mepenzolate]
MATE2K ratio [1, 3]: 1.72 | MATE1 ratio [2, 3]: 23.89

OC(CCN1CCCCC1)(c1ccccc1)c1ccccc1 [Pridinol]
MATE2K ratio [1, 3]: 1.27 | MATE1 ratio [2, 3]: 1.18
